pIC50: −log10 of the molar value. “Also recorded” adds a separate entry of the source. Read-outs that look alike come from different tables or passages of the source.

The values below come from patent US12370209B2, “Methods for the use of 5′-adenosine diphosphate ribose (ADPR)” (Invirsa, Inc., priority 2016, dated 2025).

In data set [1] the test system is tumor necrosis factor alpha (TNF-α) mediated cytotoxicity. To be noted: in vitro, levels as low as; cited from earlier work.
Data set [2] deals with adenovirus serotype 3. The experiment in a line: Plaque inhibition of adenovirus serotype 3 by ADPR and lithium chloride (Example 2). The data set is classed as cell-based, Adenovirus serotype 3 (Ad3).
The test system of data set [3] is adenovirus serotype 3. Briefly: Adenovirus plaque inhibition assay in A549 cells (Example 1). Format: cell-based, Adenovirus serotype 3 (Ad3).
The test system of data set [4] is A549 cell monolayers. The following applies: human.
Data set [5] concerns MV411—human, myelomonocytic leukemia. Briefly: CellTiter-Glo cell viability assay, MV411. The data set is classed as cell-based. Background: ATP-based viability assays read luminescence as a measure of living cells.
Data set [6] concerns U87-MG—human, brain glioblastoma. Briefly: CellTiter-Glo cell viability assay, U87-MG. Format: cell-based.
Data set [7] has as its system H1437—human, lung adenocarcinoma, non-small cell lung cancer. Briefly: CellTiter-Glo cell viability assay, H1437. Format: cell-based.
The test system of data set [8] is AsPC1—human pancreatic adenocarcinoma. The experiment in a line: CellTiter-Glo cell viability assay, AsPC1. Format: cell-based.
For data set [9], the system named is A549 cell monolayers.
The test system of data set [10] is A549 cells. Briefly: Thinning of the A549 monolayer in the plaque assay (Example 5). Format: cell-based, human. The protocol:
(§1) A549 cells were plated 7×10^4 cells per well in 6-well plates. After 18 hours, growth media was removed and 1 mL of each sample mixtures was added per well. After incubating for one hour at 37° C., approximately 50-75 plaque forming units Ad3 and separately Ad5 were added per well. Virus adsorbed to the cells for two hours and then media was aspirated from the monolayers and replaced with Virus Growth Media containing Sample A dilutions of 0, 0.5, 1.0, 2.0, and 4.0 mg/mL, and agarose.
Ad3 and Ad5 plaque size and number were reduced by Sample A at 4 mg/mL and 2 mg/mL. […] The thin monolayer made it hard to delineate plaques. Very few plaques were visible as compared to control. […] Mean plaque counts at Sample A concentrations were as follows: • Ad3: 4 mg/mL-29; 2 mg/mL-10; 1 mg/mL-44; 0.5 mg/mL-54; 0 mg/mL-55 • Ad5: 4 mg/mL-7; 2 mg/mL-7; 1 mg/mL-25; 0.5 mg/mL-53; 0 mg/mL-65 Conclusion

Data set [11] has as its system A549 cell monolayers. The experiment in a line: Toxicity score on A549 cell monolayers (Example 1).
In data set [12] the test system is Adenovirus 3. The experiment in a line: Plaque inhibition by dilithium ADPR, Ad3 in A549 cells (Example 5). The data set is classed as cell-based, Adenovirus 3 (Ad3). The following applies: 4, 2, 1 and 0.5 mg/mL. As to the method: (§2) Dilithium ADPR, 150 mg powder, was stored in a glass vial (“Sample A”) at 4° C. in the dark until use. On the day of assay, Sample A was solubilized to 200 mg/ml in 750 μL water for irrigation, then further diluted to target concentrations. […] Solubilized Sample A was tested for plaque inhibitory properties against Adenovirus 3 and Adenovirus 5 (Ad3 & Ad5).
(§3) Solubilized Sample A was diluted to 4 mg/mL, 2 mg/mL, 1 mg/mL and 0.5 mg/mL in Virus Growth Media (DMEM, 2% Fetal Bovine Serum (FBS) and antibiotic, antimycotic).
as §1

Data set [13] has as its system A549 cell monolayers. Briefly: Toxicity score on A549 cell monolayers (Example 2).
Data set [14] deals with A549 (human alveolar adenocarcinoma) cell culture. The experiment in a line: MTT incorporation in A549 cell culture (Example 8). Format: cell-based. The following applies: for Average MTT incorporation as measured by OD560: 48 hours. As to the method: ADPR, sodium Salt, (Sigma A0752), was tested in A549 (human alveolar adenocarcinoma) cell culture to determine its effect on replication. ADPR was evaluated at five concentrations by incubation for 48 hours with A549 cells (previously grown to a monolayer) at 37° C. After incubation, MTT (3-(4,5-dimethylthiaz ol-2-yl)-2,5-diphenyltetrazolium bromide) dye was added to each well and live cells were measured by blue dye incorporation.

Data set [15] deals with Adenovirus 5. Briefly: Plaque inhibition by dilithium ADPR, Ad5 in A549 cells (Example 5). Format: cell-based, Adenovirus 5 (Ad5). The following applies: 4, 2, 1 and 0.5 mg/mL. As to the method: as §2, §3, §1
The subject of data set [16] is Adenovirus serotype 5 (Ad5). The experiment in a line: Viral keratoconjunctivitis model, modified McDonald-Shadduck scoring (Example 6). Format: in vivo, Oryctolagus cuniculus (New Zealand White rabbits). An excerpt: • Species: Oryctolagus cuniculus • Strain: New Zealand White rabbits • Sex: Female • Age: Commensurate with weight • Weight: Approximately 2.5 to 3.0 kilograms at study start • Number: 8 (naïve) • Method of Identification: Ear tag and cage label • Minimum Acclimation: 5 days
• 1. Inoculum—Adenovirus serotype 5 (Ad5) • (a) Physicochemical Characteristics and Composition Description: Virus propagated in A549 cells in DMEM with 8% fetal bovine serum. Cells and supernatant harvested, sonicated, and clarified by low speed centrifugation. Infectious titer by TCID50: 5.0×109 plaque-forming-units (PFU) per mL. • (b) Storage Condition: frozen at −60 to −80° C. • 2. Test Article—Dilithium ADPR • (a) Molecular weight: approximately 571.18 • (b) Storage Condition: Refrigerated at 2-8° C. • 3. Control Vehicle • (a) Composition: 0.31% sodium chloride, 0.1% sodium tetraborate, 1% boric acid, 0.35% polyethylene glycol 300 (PEG-300) in deionized (DI) water • (b) Storage Condition: Refrigerated at 2° C.-8° C. • 4. Test/Control Article Preparation • (a) Ad5 was supplied in a single aliquot for both days of inoculation. Immediately prior to the first viral inoculation on Day −1, the virus was thawed and brought to room temperature. 0.05 mL (50 μL) of the 5.0×10^9 PFU Ad5/mL solution was diluted with 1.5 mL of Dulbecco's Modified Eagle Medium (DMEM) to create a 1.61×10^8 PFU Ad5/mL solution. After the first inoculation on Day −1, the remaining virus solution was stored refrigerated at 2-8° C. until the second inoculation on Day 0. Virus solution was not re-frozen. • (b) Vehicle: 55.8 mg sodium chloride, 18 mg of sodium tetraborate, 180 mg of boric acid, and 63 mg of PEG-300 were weighed out into a vial. 14 mL DI water was added, and vial contents were swirled, vortexed, and/or sonicated if needed until a clear solution is formed. The pH of the solution was tested using pH tester strips and adjusted to 7.0-7.2, if necessary, using sodium hydroxide (NaOH) or additional boric acid. The volume was then brought up to 18 mL with additional DI water to make a 0.31% sodium chloride, 0.1% sodium tetraborate, 1% boric acid, 0.35% PEG-300 solution. The vial contents were sterile filtered through a 0.2 or 0.22 μm filter. • (c) Dilithium ADPR—High Dose: 240 mg of dilithium ADPR was weighed out into a vial. 12 mg of sodium tetraborate, 120 mg of boric acid, and 42 mg of PEG-300 were weighed out into a separate vial. 7 mL DI water was added, and vial contents were swirled, vortexed, and/or sonicated if needed until a clear solution is formed. The solution was transferred to the vial containing dilithium ADPR. The volume was brought up to […] with DI water, and vial contents were swirled, vortexed, and/or sonicated if needed until a clear solution is formed. […]

[17] abbreviates: MV411, 72 hours treatment, average of two values.
Where [18] appears, read: U87-MG, 72 hours treatment, average of two values.
Setting [19] is: H1437, 72 hours treatment, average of two values.
[20] abbreviates: AsPC1, 72 hours treatment, average of two values.
Where [21] appears, read: 0.5%, 1% and 2% topical TID, Day 3 and Day 7 compared to baseline on Day 1, p<0.01.

Take `Nc1ncnc2c1ncn2[C@@H]1O[C@H](COP(=O)(O)OP(=O)(O)OC[C@H]2OC(O)[C@H](O)[C@@H]2O)[C@@H](O)[C@H]1O` (some centres unmarked) [ADPR, 5′-adenosine diphosphate ribose]: in data set [1], the “ADPR level with measurable inhibition of TNF-α mediated cytotoxicity” value is on record as 5 mg/L.

On to `Nc1ccn(C[C@@H](CO)OCP(=O)(O)O)c(=O)n1` [Cidofovir], for which the Plaque appearance result was “small plaques” in data set [2] (3 μM Cidofovir), “Pinpoint plaques” in data set [2] (33 μM Cidofovir) and “pinpoint” in [3] (100 μM Cidofovir). The “Plaque Counts” value in data set [3] (20 μM Cidofovir) was found to be 39. Further, the “Plaque size and number” value in [3] (cidofovir, as concentrations were increased (20, 100 μM)) is “decreased”.

For `NC(=O)c1cccnc1` [Compound N, Nicotinamide], the “Toxicity Scores (T value)” value in data set [4] (60 μg/ml) was “T = 0”; in data set [4] (600 μg/ml) it was “T = 2”; in data set [4] (6000 μg/ml), “T = 3”. In addition, in data set [3] (600 μg/ml nicotinamide alone), the Plaque appearance result was “much larger”. The “Plaque Counts” value in [3] (Compound N 6000 μg/ml, 0 μg/ml Compound A, Ad3, A549) is listed as “Toxic”.

As a reminder, the pIC50 is the IC50 on a negative log10 scale, so that one unit is a factor of ten. Regarding `CCc1c2c(nc3ccc(O)cc13)-c1cc3c(c(=O)n1C2)COC(=O)[C@]3(O)CC` [SN38], the pIC50 in data set [5] (setting [17]) was 5.93; in [6] (setting [18]), 5.92; in data set [7] (setting [19]) it was 6.70; in data set [8] (setting [20]), 5.82.

Consider `[Cl-].[Li+]` [Sample L, Lithium Chloride], for which the negative-log IC50 (pIC50) in data set [5] was less than 2.22; in [6], less than 2.52; in data set [7], less than 2.52; in data set [8], less than 2.52. The Plaque appearance result in data set [2] is “much larger; also recorded: very large plaques”. In [9], the “Toxicity Scores (T value)” value was “T = 0”.

As for “Adenosine 5′-diphosphoribose Sodium Salt [Compound A]”, the “Monolayer compared to cell control wells” value in data set [10] (1 mg/mL and 0.5 mg/mL) is recorded as “slight thinning”. Moreover, the “Monolayer compared to control wells” value in data set [10] (4 and 2 mg/mL) is on record as “moderate thinning”. The “Toxicity Scores (T value)” value in data set [11] (Compound A 2000 μg/ml), in data set [11] (Compound A 6000 μg/ml), in data set [13] (Sample A 0.44 mM), in data set [13] (Sample A 1.33 mM) and in data set [13] (Sample A 4.0 mM) was “T = 0” each time. The “Plaque size and number” value in [12] and in [15] was “reduced” throughout. In addition, the “Plaque size as compared to control” value is “reduced” in data set [2] (Sample A at 0.44, 1.33 and 4.0 mM); “reduced” in [3] (Compound A at 2000 and 6000 μg/ml). Also, the “Average MTT incorporation as measured by OD560” value turned out to be 0.62±0.08 in data set [14] (1.5 mg/mL); 0.61±0.09 in data set [14] (3 mg/mL); 0.72±0.04 in data set [14] (6 mg/mL); 0.69±0.01 in data set [14] (12 mg/mL); 0.55±0.02 in data set [14] (24 mg/mL). For the same molecule, the “Effect on MTT incorporation” value in data set [14] (at 24 mg/mL) was “mild reduction”; in data set [14] (up to 12 mg/mL (equal to 21 mM)), “did not reduce”.

With Dilithium ADPR, the pIC50 was 3.49 in [5] (setting [17]), 2.81 in data set [6] (setting [18]), 3.27 in [7] (setting [19]) and 3.24 in data set [8] (setting [20]). Further, in data set [16] (setting [21]), the “Composite modified McDonald-Shadduck score (total of all sub scores)” value is reported as “significantly improved; also recorded: significant improvement”. In data set [16] (setting [21]), the Subscore conjunctival congestion result was “improvement that was statistically significant”. Also, the “Subscore surface area of corneal involvement” value in data set [16] (0.5%, 1% and 2% topical TID, Day 3 and Day 7 compared to baseline on Day 1, p<0.05) is “improvement that was statistically significant”. The “Reduction in the composite score” value in data set [16] (all doses (0.5%, 1.0% and 2.0%), by Day 7) is on record as more than 80%.
